In this test the target is Excitatory amino acid transporter 1 (Homo sapiens) (UniProt P43003). Put plainly: SLC1A3 amino acid substrate potency, dose response, HEK293 JumpIn overexpressing cells, membrane potential dye (AID 1745864). The conditions noted are these: HEK293 JumpIn SLC1A3 OE, FLIPR membrane potential.

The values below come from PubChem BioAssay AID1745864.

Sequence of Excitatory amino acid transporter 1 (Homo sapiens) (P43003 whole entry, looked up): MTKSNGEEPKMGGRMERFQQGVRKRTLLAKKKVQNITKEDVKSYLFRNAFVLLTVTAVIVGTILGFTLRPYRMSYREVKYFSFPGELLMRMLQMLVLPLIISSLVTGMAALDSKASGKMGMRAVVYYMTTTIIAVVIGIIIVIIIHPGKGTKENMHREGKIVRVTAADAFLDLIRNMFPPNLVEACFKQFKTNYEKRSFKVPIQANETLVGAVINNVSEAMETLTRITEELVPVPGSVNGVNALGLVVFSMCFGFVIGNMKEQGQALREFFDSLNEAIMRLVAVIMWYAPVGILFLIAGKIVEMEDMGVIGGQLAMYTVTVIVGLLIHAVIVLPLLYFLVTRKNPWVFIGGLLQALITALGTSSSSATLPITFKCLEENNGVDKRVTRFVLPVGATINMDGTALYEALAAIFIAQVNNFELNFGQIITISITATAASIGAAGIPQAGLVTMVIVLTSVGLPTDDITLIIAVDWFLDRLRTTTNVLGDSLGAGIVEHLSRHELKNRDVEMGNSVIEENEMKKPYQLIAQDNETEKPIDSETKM

For orientation: EC50 means the concentration giving half of the maximal effect. As to `N[C@@H](CS)C(=O)O`, the concentration for a half-maximal effect (EC50) was 376 µM.
